Measurements from patent US20200397763A1, “PARENTERAL FORMULATION MATERIALS AND METHODS FOR 40-O-CYCLIC HYDROCARBON ESTERS AND RELATED STRUCTURES” (Biotronik AG, priority 2018, published 2020).

Columns and labels:
[1] = prior art; blood plasma; 15 mg/kg; SEQ ID NO:1 with nanoparticles; cited from earlier work
[2] = Rat intravenous PK of the EtOH / SEQ ID NO:1 formulation without nanoparticles; format: in vivo, Sprague-Dawley rats; details: for AUC(0-inf): Sprague-Dawley, rat, rats, intravenous 15 mg/kg, EtOH / 20% SEQ ID NO:1 in saline, without nanoparticles, LCMS
Experimental: It is understood the concentration may be optimized according to desired dosing schemes, routes of administration, etc.
The PK studies were conducted around the formulation from Example I. Specifically, Sprague-Dawley rats were dosed intravenously at 15 mg/kg, with blood samples being collected prior to dosing, in order to establish baseline, then post dosing at set intervals up to 24 hours. Drug bioanalytical measurements were conducted by LCMS.
Results (AUCinf) reported in the prior art are from blood plasma, whereas the present results are from both plasma and whole blood. This was done to allow for direct comparison to the previous studies. Drug area under the curve versus time ((AUCinf), total drug dose exposure) was calculated accordingly.
Sirolimus (rapamycin) was used and formulated in accordance with those steps described previously at Example I. Specifically, sirolimus was combined with SEQ ID NO:1 but without nanoparticles and tested against the studies shown in the prior art, namely, sirolimus formulated with SEQ ID NO:1 but with nanoparticles.

## CO[C@H]1C[C@@H]2CC[C@@H](C)[C@@](O)(O2)C(=O)C(=O)N2CCCC[C@H]2C(=O)O[C@H]([C@H](C)C[C@@H]2CC[C@@H](O)[C@H](OC)C2)CC(=O)[C@H](C)/C=C(\C)[C@@H](O)[C@@H](OC)C(=O)[C@H](C)C[C@H](C)/C=C/C=C/C=C/1C [Sirolimus, rapamycin]
[1]
  AUCinf: 6017 ± 647 ng·h/mL
[2]; plasma
  AUC(0-inf): 5180 ± 130 ng·h/mL
[2]; whole blood
  AUC(0-inf): 5060 ± 541 ng·h/mL
[2]; sirolimus without nanoparticles (current) versus with nanoparticles (prior art)
  difference between the AUCinf results of the current studies and the prior art: 20%
